Experiments:
FRE cells = assay: MTT respiratory inhibition cytotoxicity assay versus luciferase induction in G21; assay type: cell-based; conditions: G21 reporter cells vs FRE cells, 6 hours
Excerpt: To determine cytotoxic concentrations of chemicals registering as positives in the high throughput luciferase assay the MTT cytotoxicity assay was employed (82). In this assay, a tetrazolium salt [3-(4,5-dimethylthiazol-2-yl)-2,5-diphenyl -tetrazolium bromide, MTT] is reduced to a colored formazon product by reducing enzymes present only in living metabolically active cells.
To address the question whether the induction of G-CSF, and GM-CSF transcription by the compound #542 was a specific effect or rather a phenomenon linked to a potential sensitivity of these promoters to stress exerted by toxic compounds, the concentration dependency of induction of luciferase activity in the reporter cell line G21 was compared to the concentration dependency of inhibition of respiration in FRE cells. Cells were seeded into 96 well microtiter plates (20,000 cells/well) and cultured overnight. Compound #542 was added at various concentrations and the cells were incubated for 6 hours. Luciferase activity was determined as described above. The MTT-colorimetric assay was carried out on identically treated samples of FRE cells. Induction of luciferase reporter signal (plain line) and on inhibition of respiration (dashed line) are plotted versus the concentrations of compound (FIG. 40). […]

GM-CSF mRNA = assay: S1 nuclease protection, GM-CSF mRNA; assay type: cell-based, human; conditions: 5637 cells, 18 hours
Procedure: (§1) S1 Nuclease protection assays were carried out as described in reference 118.
(§2) To further confirm, that compounds that had been identified in a luciferase expression assay using a G-CSF specific reporter cell line would be active in inducing transcription of the endogenous G-CSF gene, cells from the parental cell line 5637 used to construct the reporter cell line were incubated with cycloheximide (25 ug/ml), DMSO (0.5%,solvent control) and low, medium and high concentrations of the compounds 542 (10, 50, 250 μM),1255 (20, 100, 500 uM), 1793(0.25, 1.2, 6.25 μM) and 1904 (20, 100 uM) for 18 hours. RNA was extracted and the concentration of G-CSF, GM-CSF and gamma-actin mRNA was determined by the S1 protection method as described in above. The positions of G-CSF GM-CSF and gamma-actin specific protected fragments are indicated (G, GM, A) at the left side of the gel (FIG. 37).

G-CSF mRNA [1] = assay: S1 nuclease protection, G-CSF mRNA; assay type: cell-based, human; conditions: for amount of G-CSF mRNA (S1 nuclease protection): 5637 cells, 18 hours
Procedure: as §1, §2

[2] = test system: 5637 bladder carcinoma cells; assay: G-CSF secretion, two-antibody sandwich immunoassay; assay type: cell-based, human; conditions: 48 hours, serum-containing media
Procedure: Supernatants from 5637 bladder carcinoma cells incubated with chemicals registering as positives in the G-CSF promoter/luciferase high throughput assay were assayed for secreted G-CSF protein using the two-antibody sandwich immunoassay (83). The G-CSF Assay kit manufactured by Oncogene Science, Inc. was used and the manufacturer's instructions were followed.
The levels of G-CSF in the cell supernatants were determined by a sandwich-antibody assay as described in above (FIG. 42).

[3] = in vivo; cited from earlier work
HMGCoA reductase = conditions: animals, high doses; cited from earlier work
M-CSF promoter = assay: M-CSF (CSF-1) promoter/luciferase induction, M2071, M2085, M2086; assay type: cell-based, human; conditions: 2,000 units/ml, 16 hours, all three M-CSF clones
Procedure: Human promyelocytic leukemia HL-60 cells are known to express CSF-1 (74). They were transfected with linearized pCSF1-102 (FIG. 21) and linearized PTKneo3 using electroporation as described above. Three neomycin resistant clones were generated: --M2071, M2085 and M2086. All three responded to a 16 hour incubation with 2000 units/ml interferon-gamma by a 20-fold increase of luciferase expression. M2086 was selected for use in the high throughput screen. The WI-38 human fibroblast cell line is also capable of producing CSF-1. Stable transfectants are also prepared from these for screening in a different cellular background. There is evidence for tissue-specific modulation of CSF-1 gene expression, and since the major source of the CSF-1 which stimulates the growth of macrophages at atherosclerotic plaques is unknown, screening with more than one cell line may be useful.
Promoter induction experiments were also conducted with the GM-CSF reporter cell lines GM1073, GM1088 and GM1105, which were all shown to contain correctly inserted constructs (see above). […] Luciferase expression of clones GM1088 and GM1105 was induced by PMA 2.8 fold and 2 fold, respectively, while TNF-alpha induced both clones 2 fold. All three M-CSF clones responded to a 16-hour incubation with 2,000 units/ml Interferon-gamma by a 20-fold increase of luciferase expression from the M-CSF promoter.

G-CSF mRNA [4] = assay: Northern blot of endogenous G-CSF mRNA; assay type: cell-based, human; conditions: U5637 cells, relative to DMSO
Procedure: Total cellular RNA was isolated from cells following incubation with chemicals as described above and electrophoresed in a 1% Agarose Formaldehyde gel. The RNA was transferred to Duralon-UV nylon filters (Stratagene, La Jolla, Calif.) using the manufacturer's recommended protocol. The filters were prehybridized for 4 hours (prehybridizing solution=5× SSC, 50 mM sodium pyrophosphate, 10× Denhardt's solution, 10% dextran sulfate, 7% SDS and 250 μg/ml denatured ssDNA) and then hybridized in the same solution for 16 hours at 65° C. in the presence of specific probes. The G-CSF probe was a 0.6 kb AflII to Xhol fragment which contained most of exon 5 of the human G-CSF gene. The β-actin (Oncor, Gaithersburg, Md.) probe was used as a control probe to normalize for the total amount of RNA. The probes were labeled with alpha-32P dCTP using a random primed DNA labeling kit (Amersham, Arlington, Ill.). Following hybridization, filters were washed three times at room temperature with 1× SSC, 0.13% SDS and three times at 65° C. with 0.2× SSC, 0.1% SDS. Filters were first probed with the G-CSF specific probe and then reprobed with β-actin-probe. Exposure to x-ray film was performed overnight. Bands were excised and counted in a liquid scintillation counter (LKB, Gaithersburg, Md.), and counts obtained with the G-CSF specific probe were normalized relative to the counts obtained with the β-Actin specific probe.
Also shown are the effects of the solvent, DMSO, used to dissolve the chemicals and a proteinaceous positive regulator, interferon-gamma.

Nc1nc(=O)n([C@H]2C[C@H](O)[C@@H](CO)O2)cc1Br [#542]
factor between ED50 for induction of luciferase activity and ED50 for inhibition of respiration (FRE cells): ~10 factor | amount of GM-CSF mRNA (S1 nuclease protection) (GM-CSF mRNA): increased the amount of GM-CSF mRNA | amount of G-CSF mRNA (S1 nuclease protection) (G-CSF mRNA [1]): increased mRNA production | levels of endogenous G-CSF mRNA (G-CSF mRNA [1]; method not stated at the place): stimulate levels of endogenous G-CSF mRNA | G-CSF secretion [2]: increased G-CSF secretion

CN(C)C(=S)SCC#N [#1793]
amount of GM-CSF mRNA (S1 nuclease protection) (GM-CSF mRNA): increased the amount of GM-CSF mRNA | amount of G-CSF mRNA (S1 nuclease protection) (G-CSF mRNA [1]): increased mRNA production

CC[C@H](C)C(=O)O[C@H]1C[C@@H](C)C=C2C=C[C@H](C)[C@H](CC[C@@H]3C[C@@H](O)CC(=O)O3)[C@H]21 [lovastatin]
most frequently reported side effects [3]: Gastrointestinal disturbances, including flatulence, diarrhea, constipation and nausea

CC[C@H](C)C(=O)O[C@H]1C[C@@H](C)C=C2C=C[C@H](C)[C@H](CC[C@@H]3C[C@@H](O)CC(=O)O3)[C@H]21 [mevinolin]
HMGCoA reductase levels (HMGCoA reductase): increased levels of HMGCoA reductase

Interferon-gamma: a proteinaceous positive regulator, interferon-gamma
increase of luciferase expression from the M-CSF promoter (M-CSF promoter): 20 fold | effect on endogenous G-CSF mRNA (Northern blot) (G-CSF mRNA [4]): increased G-CSF mRNA production

Reference: patent US5846720A, “Methods of determining chemicals that modulate expression of genes associated with cardiovascular disease” (Oncogene Science, Inc., priority 1996, dated 1998)
